In patent US8846704B2, “Thiopyrimidine-based compounds and uses thereof” (YM Biosciences Austraila Pty Ltd, priority 2007, dated 2014):

What was measured:
Format in all cases: biochemical
[1] = molecular target: T1, Human hemopoietic cell protein-tyrosine kinase (HCK) (Homo sapiens, UniProt P08631); assay: Alphascreen tyrosine kinase enzyme assay, HCK kinase domain; conditions: read-out: FMS, FLT3, or HCK IC50_nM (HCK)
T1 construct: GST (N); made in house; host or cells: Sf9 insect cells (baculovirus)
T1 sequence (P08631 233-526): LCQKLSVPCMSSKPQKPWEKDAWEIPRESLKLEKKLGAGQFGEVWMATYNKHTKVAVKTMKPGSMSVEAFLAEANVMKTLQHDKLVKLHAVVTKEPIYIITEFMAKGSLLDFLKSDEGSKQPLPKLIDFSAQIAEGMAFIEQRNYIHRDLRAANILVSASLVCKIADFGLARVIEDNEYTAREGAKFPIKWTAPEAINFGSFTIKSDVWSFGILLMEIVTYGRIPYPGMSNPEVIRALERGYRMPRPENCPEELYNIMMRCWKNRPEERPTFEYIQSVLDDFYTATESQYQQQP
Description: (§1) For screening purposes, compounds (in 100% DMSO) were warmed at 37 degrees for at least 20 minutes before use. A […] stock was initially made in assay buffer, where the final concentration of DMSO was 0.3%. The stocks were then diluted in 384 well Optiplates (Packard) where the final concentration of the compound was […].
The kinase domain of Human hemopoietic cell protein-tyrosine kinase (HCK) between L212 and P505 (accession number M16592) was amplified from U937 mRNA using the polymerase chain reaction.
The PCR product was cloned into the pDest20 destination vector (Gibco). The plasmid was then transformed into competent […] cells (Gibco) to produce a HCK bacmid. The recombinant baculovirus was prepared via Sf9 insect cell transfection with bacmid DNA.
Baculovirus preparations from each of the constructs were infected into either one or five liters of Sf9 cells (Invitrogen) grown in SF-900 medium (Invitrogen) to a cell density of approximately 1-2×10^6 cells/ml. Cells were infected with virus at a MOI of 0.8-3.0. Cells were harvested and lysed. Tyrosine kinase domains were purified by affinity chromatography on a glutathione-agarose column (Scientifix Pty. Ltd. catalog #: GSH-200). […]

human CSF1-R (FMS) = molecular target: T2, human CSF1-R (FMS) (Homo sapiens, UniProt P07333); assay: Alphascreen tyrosine kinase enzyme assay, CSF-1R (FMS) kinase domain; conditions: read-out: FMS, FLT3, or HCK IC50_nM (FMS)
T2 construct: from codon I553 to Q961; GST (N); made in house; host or cells: Sf9 insect cells (baculovirus)
T2 sequence (P07333 553-961): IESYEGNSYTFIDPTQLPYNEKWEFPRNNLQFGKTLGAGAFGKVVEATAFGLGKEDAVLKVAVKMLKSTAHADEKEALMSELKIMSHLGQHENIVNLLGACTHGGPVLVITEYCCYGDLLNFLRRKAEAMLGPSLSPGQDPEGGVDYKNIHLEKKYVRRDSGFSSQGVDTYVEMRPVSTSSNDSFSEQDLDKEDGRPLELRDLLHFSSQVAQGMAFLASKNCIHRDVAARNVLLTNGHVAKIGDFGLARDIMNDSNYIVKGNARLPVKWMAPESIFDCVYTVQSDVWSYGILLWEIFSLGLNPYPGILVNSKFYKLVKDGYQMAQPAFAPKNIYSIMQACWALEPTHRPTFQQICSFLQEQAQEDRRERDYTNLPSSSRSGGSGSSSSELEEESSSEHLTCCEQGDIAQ
Description: as §1
The kinase domain of human CSF1-R from codon I553 to Q961 was cloned into the pDest20 expression vector (Invitrogen). The CSF1-R plasmid was then transformed into competent DH10Bac cells (Gibco), and the recombinant baculovirus produced prepared for transfection into Sf9 insect cells.
(§2) Baculovirus preparations from each of the constructs were infected into either one or five liters of Sf9 cells (Invitrogen) grown in SF-900 medium (Invitrogen) to a cell density of approximately 1-2×10^6 cells/ml. Cells were infected with virus at a MOI of 0.8-3.0. Cells were harvested and lysed. Tyrosine kinase domains were purified by affinity chromatography on a glutathione-agarose column (Scientifix Pty. Ltd. catalog #: GSH-200).
(§3) Kinase assays were performed in 384 well Optiplates (Packard) using an Alphascreen Protein Tyrosine Kinase PY100 detection kit The compounds were pre-incubated with affinity purified PTK domain in the presence of phosphotyrosine assay buffer (10 mM HEPES, pH 7.5, 100 mM MgCl2, 25 mM NaCl, […] and 0.1% Tween 20) for 20 minutes. The compounds were then incubated with substrate in the presence of ATP. The substrate used was susbtrate-1 with the sequence biotin-EGPWLEEEEEAYGWMDF-NH2 [SEQ. ID. NO. 13] (final concentration […]). For HCK 80 μm ATP was used and incubated for 60 minutes. Alphascreen phosphotyrosine acceptor beads followed by streptavidin donor beads at a concentration of 1/100 in stop buffer were added to each well under subdued light and incubated for 2-3 hours., The Alphascreen plates were read on a Packard Fusion Alpha instrument.

KDR(h) = molecular target: T3, KDR(h) (Homo sapiens, UniProt P35968); assay: Upstate KinaseProfiler enzyme assay, KDR; conditions: 500 nM compound; read-out: Percent inhibition at 500 nM KDR(h)
T3 construct: purchased Upstate Biotechnology (Dundee, UK), KinaseProfiler service
T3 sequence (P35968 20-1356): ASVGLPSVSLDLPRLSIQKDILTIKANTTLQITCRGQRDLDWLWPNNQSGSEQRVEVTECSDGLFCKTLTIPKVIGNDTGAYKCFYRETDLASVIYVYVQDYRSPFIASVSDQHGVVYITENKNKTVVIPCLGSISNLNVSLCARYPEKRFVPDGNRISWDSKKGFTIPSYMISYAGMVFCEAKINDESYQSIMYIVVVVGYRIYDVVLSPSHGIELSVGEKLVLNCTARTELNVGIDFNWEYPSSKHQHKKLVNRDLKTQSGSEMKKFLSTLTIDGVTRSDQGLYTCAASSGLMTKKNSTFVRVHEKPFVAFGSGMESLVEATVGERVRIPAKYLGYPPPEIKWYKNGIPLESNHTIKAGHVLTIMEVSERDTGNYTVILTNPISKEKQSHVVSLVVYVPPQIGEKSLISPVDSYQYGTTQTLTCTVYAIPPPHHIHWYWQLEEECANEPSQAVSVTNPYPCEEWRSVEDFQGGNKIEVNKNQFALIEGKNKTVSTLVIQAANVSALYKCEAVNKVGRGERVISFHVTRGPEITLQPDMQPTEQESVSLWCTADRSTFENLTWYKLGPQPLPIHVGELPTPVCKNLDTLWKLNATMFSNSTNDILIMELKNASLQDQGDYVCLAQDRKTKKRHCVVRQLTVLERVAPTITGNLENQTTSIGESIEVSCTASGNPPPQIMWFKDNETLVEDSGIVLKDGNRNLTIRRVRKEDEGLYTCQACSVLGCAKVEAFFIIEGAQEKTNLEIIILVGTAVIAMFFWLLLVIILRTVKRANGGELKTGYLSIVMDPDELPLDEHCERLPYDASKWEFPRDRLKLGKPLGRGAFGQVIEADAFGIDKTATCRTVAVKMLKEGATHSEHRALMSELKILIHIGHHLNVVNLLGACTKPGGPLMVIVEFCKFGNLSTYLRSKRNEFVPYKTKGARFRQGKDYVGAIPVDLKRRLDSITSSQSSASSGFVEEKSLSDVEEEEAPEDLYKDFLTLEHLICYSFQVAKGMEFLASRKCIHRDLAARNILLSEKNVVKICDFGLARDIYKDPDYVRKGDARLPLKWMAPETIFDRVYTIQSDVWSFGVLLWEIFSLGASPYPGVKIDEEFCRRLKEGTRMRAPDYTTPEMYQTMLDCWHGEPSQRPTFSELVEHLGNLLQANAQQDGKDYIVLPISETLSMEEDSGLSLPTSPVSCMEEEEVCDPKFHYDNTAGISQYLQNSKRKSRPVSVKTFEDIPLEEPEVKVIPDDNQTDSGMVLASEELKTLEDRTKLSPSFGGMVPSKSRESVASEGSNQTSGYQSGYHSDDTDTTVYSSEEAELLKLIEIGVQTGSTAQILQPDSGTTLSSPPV
Description: (§4) Further enzyme assays were conducted at Upstate Biotechnology (Dundee, UK) in the KinaseProfiler™ Assay system.
(§5) The general protocol is as follows. All kinases are pre-diluted to a 10× working concentration prior to addition into the assay. The composition of the dilution buffer for the kinases is 20 mM MOPS pH 7.0, 1 mM EDTA, 0.1% β-mercaptoethanol, 0.01% Brij-35, 5% glycerol, 1 mg/ml BSA. All substrates are dissolved and diluted to working stocks in de-ionised water.

Bmx(h) = molecular target: T4, Bmx(h) (Homo sapiens, UniProt P51813); assay: Upstate KinaseProfiler enzyme assay, Bmx; conditions: 500 nM compound; read-out: Percent inhibition at 500 nM Bmx(h)
T4 construct: purchased Upstate Biotechnology (Dundee, UK), KinaseProfiler service
T4 sequence (P51813 1-675): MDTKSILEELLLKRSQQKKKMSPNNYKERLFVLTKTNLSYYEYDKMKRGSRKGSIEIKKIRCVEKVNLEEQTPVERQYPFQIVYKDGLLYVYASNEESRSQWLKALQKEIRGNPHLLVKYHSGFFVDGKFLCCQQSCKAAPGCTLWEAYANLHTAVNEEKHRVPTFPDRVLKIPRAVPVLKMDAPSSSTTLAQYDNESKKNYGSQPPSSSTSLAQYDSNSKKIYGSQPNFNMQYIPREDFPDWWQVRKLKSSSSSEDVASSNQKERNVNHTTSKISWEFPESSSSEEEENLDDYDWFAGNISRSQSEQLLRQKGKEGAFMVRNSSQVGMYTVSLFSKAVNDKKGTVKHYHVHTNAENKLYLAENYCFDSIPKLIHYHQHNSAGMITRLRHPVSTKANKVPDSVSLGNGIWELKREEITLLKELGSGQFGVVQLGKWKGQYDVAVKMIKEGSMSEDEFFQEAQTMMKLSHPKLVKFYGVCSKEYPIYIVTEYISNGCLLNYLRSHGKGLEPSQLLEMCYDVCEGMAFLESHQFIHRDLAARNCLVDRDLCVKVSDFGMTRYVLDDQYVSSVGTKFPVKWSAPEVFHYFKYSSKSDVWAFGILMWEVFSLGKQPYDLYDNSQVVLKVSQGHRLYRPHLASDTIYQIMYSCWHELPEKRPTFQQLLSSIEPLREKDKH
Description: as §4, §5

Blk(m) = molecular target: T5, Blk(m) (Mus musculus, UniProt P16277); assay: Upstate KinaseProfiler enzyme assay, Blk; conditions: 500 nM compound; read-out: Percent inhibition at 500 nM Blk(m)
T5 construct: purchased Upstate Biotechnology (Dundee, UK), KinaseProfiler service
T5 sequence (P16277 whole entry): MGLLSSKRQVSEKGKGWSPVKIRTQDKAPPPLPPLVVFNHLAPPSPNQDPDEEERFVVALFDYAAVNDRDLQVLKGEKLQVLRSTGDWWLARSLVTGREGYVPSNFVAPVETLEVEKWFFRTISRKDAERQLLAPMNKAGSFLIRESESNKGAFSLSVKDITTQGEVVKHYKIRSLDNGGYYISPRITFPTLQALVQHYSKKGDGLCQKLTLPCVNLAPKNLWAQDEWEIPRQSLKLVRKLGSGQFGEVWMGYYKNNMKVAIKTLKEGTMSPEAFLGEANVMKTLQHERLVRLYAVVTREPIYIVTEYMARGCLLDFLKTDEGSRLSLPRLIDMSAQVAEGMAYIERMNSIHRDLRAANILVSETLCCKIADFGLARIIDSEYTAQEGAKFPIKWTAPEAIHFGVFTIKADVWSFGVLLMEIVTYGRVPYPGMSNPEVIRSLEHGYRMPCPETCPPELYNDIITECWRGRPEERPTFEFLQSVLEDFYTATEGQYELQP
Description: as §4, §5

BTK(h) = molecular target: T6, BTK(h) (Homo sapiens, UniProt Q06187); assay: Upstate KinaseProfiler enzyme assay, BTK; conditions: 500 nM compound; read-out: Percent inhibition at 500 nM BTK(h)
T6 construct: purchased Upstate Biotechnology (Dundee, UK), KinaseProfiler service
T6 sequence (Q06187 whole entry): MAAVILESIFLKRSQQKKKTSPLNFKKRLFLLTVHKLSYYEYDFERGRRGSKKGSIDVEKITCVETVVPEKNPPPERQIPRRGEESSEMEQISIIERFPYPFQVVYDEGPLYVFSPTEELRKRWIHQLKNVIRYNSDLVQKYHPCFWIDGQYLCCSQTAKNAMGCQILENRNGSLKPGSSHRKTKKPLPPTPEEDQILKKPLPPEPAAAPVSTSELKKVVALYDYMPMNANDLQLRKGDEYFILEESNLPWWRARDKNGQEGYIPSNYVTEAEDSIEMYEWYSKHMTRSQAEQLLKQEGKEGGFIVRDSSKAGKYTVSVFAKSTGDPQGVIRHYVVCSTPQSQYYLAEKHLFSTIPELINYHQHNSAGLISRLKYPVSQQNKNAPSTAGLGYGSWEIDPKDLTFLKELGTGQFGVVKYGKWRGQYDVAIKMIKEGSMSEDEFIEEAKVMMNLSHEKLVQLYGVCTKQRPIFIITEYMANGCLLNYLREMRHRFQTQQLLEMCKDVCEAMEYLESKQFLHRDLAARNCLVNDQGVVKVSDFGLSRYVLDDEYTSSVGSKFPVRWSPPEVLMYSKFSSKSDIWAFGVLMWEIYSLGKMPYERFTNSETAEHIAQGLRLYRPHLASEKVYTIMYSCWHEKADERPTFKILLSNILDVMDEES
Description: as §4, §5

human JAK3 = molecular target: T7, human JAK3 (Homo sapiens, UniProt P52333); assay: Alphascreen tyrosine kinase enzyme assay, JAK3 kinase domain; conditions: read-out: JAK3 IC50_nM
T7 construct: The kinase domain of human JAK3 was amplified; GST (N); made in house; host or cells: Sf9 insect cells (baculovirus)
T7 sequence (P52333 822-1111 limits assumed): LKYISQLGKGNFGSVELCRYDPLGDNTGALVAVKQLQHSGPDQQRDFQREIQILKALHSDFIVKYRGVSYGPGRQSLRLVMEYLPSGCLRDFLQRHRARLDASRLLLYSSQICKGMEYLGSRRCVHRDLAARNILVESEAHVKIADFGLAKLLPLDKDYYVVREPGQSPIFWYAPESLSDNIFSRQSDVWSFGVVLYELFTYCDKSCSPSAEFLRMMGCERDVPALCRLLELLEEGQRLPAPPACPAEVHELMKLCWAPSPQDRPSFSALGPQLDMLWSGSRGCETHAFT
Description: as §1
The kinase domain of human JAK3 was amplified from U937mRNA using the polymerase chain reaction with the following primers: […]
The JAK3 PCR products were cloned into the pDest20 destination expression vector (Gibco). The JAK3 plasmid was then transformed into competent DH10Bac cells (Gibco), and the recombinant baculovirus was prepared via Sf9 insect cell transfection.
as §2, §3

Flt 1(h) = molecular target: T8, Flt 1(h) (Homo sapiens, UniProt P17948); assay: Upstate KinaseProfiler enzyme assay, Flt 1; conditions: 500 nM compound; read-out: Percent inhibition at 500 nM Flt 1(h)
T8 construct: purchased Upstate Biotechnology (Dundee, UK), KinaseProfiler service
T8 sequence (P17948 27-1338): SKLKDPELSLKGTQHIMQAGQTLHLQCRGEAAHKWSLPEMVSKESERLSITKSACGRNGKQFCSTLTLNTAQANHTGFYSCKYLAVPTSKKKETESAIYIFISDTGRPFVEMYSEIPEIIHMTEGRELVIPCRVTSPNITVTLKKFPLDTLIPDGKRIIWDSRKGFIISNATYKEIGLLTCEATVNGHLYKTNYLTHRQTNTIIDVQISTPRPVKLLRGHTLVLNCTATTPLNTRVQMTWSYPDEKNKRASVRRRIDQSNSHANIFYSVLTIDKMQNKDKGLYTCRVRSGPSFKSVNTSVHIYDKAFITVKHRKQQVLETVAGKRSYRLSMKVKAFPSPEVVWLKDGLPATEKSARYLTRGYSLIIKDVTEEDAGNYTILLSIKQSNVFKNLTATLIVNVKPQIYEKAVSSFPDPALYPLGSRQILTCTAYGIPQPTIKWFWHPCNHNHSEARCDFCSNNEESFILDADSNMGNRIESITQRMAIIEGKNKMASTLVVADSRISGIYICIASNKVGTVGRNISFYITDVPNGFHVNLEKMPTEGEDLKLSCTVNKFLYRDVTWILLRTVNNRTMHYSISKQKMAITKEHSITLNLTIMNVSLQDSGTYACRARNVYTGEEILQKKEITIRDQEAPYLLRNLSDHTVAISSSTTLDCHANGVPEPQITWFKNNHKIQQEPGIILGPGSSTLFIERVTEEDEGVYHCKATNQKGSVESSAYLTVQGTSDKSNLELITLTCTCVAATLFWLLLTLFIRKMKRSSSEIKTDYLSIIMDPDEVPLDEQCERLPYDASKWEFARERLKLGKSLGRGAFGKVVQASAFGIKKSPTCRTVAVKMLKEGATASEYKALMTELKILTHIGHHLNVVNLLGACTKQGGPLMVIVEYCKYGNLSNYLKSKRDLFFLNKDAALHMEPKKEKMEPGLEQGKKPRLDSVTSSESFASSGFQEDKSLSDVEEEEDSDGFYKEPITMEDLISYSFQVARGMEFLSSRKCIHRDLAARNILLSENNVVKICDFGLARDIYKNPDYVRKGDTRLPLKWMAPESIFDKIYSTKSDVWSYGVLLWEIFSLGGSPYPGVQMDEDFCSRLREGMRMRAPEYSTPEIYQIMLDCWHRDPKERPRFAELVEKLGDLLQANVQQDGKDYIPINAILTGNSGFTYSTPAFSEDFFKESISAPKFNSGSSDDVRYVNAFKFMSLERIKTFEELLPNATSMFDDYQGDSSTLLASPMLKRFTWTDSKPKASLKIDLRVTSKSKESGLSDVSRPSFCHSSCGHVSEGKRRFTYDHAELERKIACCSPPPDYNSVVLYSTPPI
Description: as §4, §5

human JAK2 = molecular target: T9, human JAK2 (Homo sapiens, UniProt O60674); assay: Alphascreen tyrosine kinase enzyme assay, JAK2 kinase domain; conditions: read-out: JAK2 IC50_nM
T9 construct: The kinase domain of human JAK2 was amplified; GST (N); made in house; host or cells: Sf9 insect cells (baculovirus)
T9 sequence (O60674 849-1124 limits assumed): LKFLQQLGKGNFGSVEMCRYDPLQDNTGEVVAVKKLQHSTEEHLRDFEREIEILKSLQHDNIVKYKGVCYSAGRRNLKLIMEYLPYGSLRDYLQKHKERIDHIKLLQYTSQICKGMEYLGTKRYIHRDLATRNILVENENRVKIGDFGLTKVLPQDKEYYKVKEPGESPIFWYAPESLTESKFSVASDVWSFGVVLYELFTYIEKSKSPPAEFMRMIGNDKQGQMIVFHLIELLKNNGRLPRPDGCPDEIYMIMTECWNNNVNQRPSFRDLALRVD
Description: as §1
The kinase domain of human JAK2 was amplified from U937mRNA using the polymerase chain reaction with the following primers: […]
The JAK2 PCR products were cloned into the pDest20 destination vector (Gibco). The JAK2 plasmid was then transformed into competent DH10Bac cells (Gibco), and the recombinant baculovirus was prepared via Sf9 insect cell transfection.
as §2, §3

Flt 4(h) = molecular target: T10, Flt 4(h) (Homo sapiens, UniProt P35916); assay: Upstate KinaseProfiler enzyme assay, Flt 4; conditions: 500 nM compound; read-out: Percent inhibition at 500 nM Flt 4(h)
T10 construct: purchased Upstate Biotechnology (Dundee, UK), KinaseProfiler service
Description: as §4, §5

SMILES | IC50 [1] [nM] | IC50 (human CSF1-R (FMS)) [nM] | inhibition at 0.5 µM (KDR(h)) [%] | inhibition at 0.5 µM (Bmx(h)) [%] | inhibition at 0.5 µM (Blk(m)) [%] | inhibition at 0.5 µM (BTK(h)) [%] | IC50 (human JAK3) [nM] | inhibition at 0.5 µM (Flt 1(h)) [%] | IC50 (human JAK2) [nM] | inhibition at 0.5 µM (Flt 4(h)) [%]
Oc1cccc(Sc2ccnc(Nc3ccc(N4CCOCC4)cc3)n2)c1 [Compound 38, 3-(2-(4-morpholinophenylao)pyrimidin-4-ylthio)phenol] | < 500 | < 500 |  |  |  |  |  |  |  | 
C=C(C)C(=O)Nc1cccc(Sc2ccnc(Nc3ccc(N4CCOCC4)cc3)n2)c1 [Compound 115, N-(3-(2-(4-morpholinophenylao)pyrimidin-4-ylthio)phenyl)methacrylamide] |  |  | 100 | 100 | 100 | 100 |  |  |  | 
C=CC(=O)N1CCc2cc(Sc3nc(Nc4ccc(N5CCOCC5)cc4)ncc3C)ccc21 [Compound 170, 1-(5-(5-methyl-2-(4-morpholinophenylao)pyrimidin-4-ylthio)indolin-1-yl)prop-2-en-1-one] |  |  | 97 | 97 | 96 |  | < 100 | 74 | > 1000 | 99
C=CC(=O)Nc1ccc(Sc2ccnc(Nc3cc(OC)c(OC)c(OC)c3)n2)cc1 [Compound 71, N-(4-(2-(3,4,5-trimethoxyphenylao)pyrimidin-4-ylthio)phenyl)acrylamide] |  |  | 90 | 36 | 49 | 27 |  |  |  | 
C/C=C/C(=O)Nc1ccc(Sc2ccnc(Nc3ccc(N4CCOCC4)cc3)n2)cc1 [Compound 59, (E)-N-(4-(2-(4-morpholinophenylao)pyrimidin-4-ylthio)phenyl)but-2-enamide] |  |  | 100 | 100 | 100 | 100 |  |  |  | 
O=C(CCNc1ccccc1)Nc1ccc(Sc2ccnc(Nc3ccccc3)n2)cc1 [Compound 351, 3-(phenylao)-N-(4-(2-(phenylao)pyrimidin-4-ylthio)phenyl)propanamide] |  |  | 100 | 100 | 100 | 100 |  |  |  | 
C=CC(=O)N1CCCc2cc(Sc3nc(Nc4ccc(N5CCOCC5)cc4)ncc3C)ccc21 [Compound 168, 1-(6-(5-methyl-2-(4-morpholinophenylao)pyrimidin-4-ylthio)-3,4-dihydroquinolin-1(2H)-yl)prop-2-en-1-one] |  |  | 96 | 92 | 98 |  | < 100 | 66 | > 1000 | 99
C=CC(=O)Nc1cccc(Sc2ccnc(Nc3cc(OC)c(OC)c(OC)c3)n2)c1 [Compound 51, N-(3-(2-(3,4,5-trimethoxyphenylamino)pyrimidin-4-ylthio)phenyl)acrylamide] |  |  | 100 | 100 | 29 | 100 |  |  |  | 
